Laboratory results: patent publication US9271504B2, “Insecticidal compositions and uses thereof” (Board of Trustees of Michigan State University, priority 2005, dated 2016)
“And” between values parts separate entries of the source, which are not always exact repeats. Equal entries are not always repeated.

Key:
[1] = test system: redbanded leafrollers, Argyrotaenia velutinana; experiment: Electroantennogram (EAG) responses of redbanded leafrollers; type: in vivo; conditions: 2 mg on filter paper
Description: (§1) Five natural-product sources were used per study. The plants (Table 1) were all collected from sandy lime soil during spring and summer of 2002 in Ta ? liçiftlik, Tokat, in a temperate region of Turkey, where the altitude is 600 m. Samples were dried at room temperature for 3 wk in the dark and subsequently were ground in a mill (M 20 IKA Universal Mill, IKA Group). Ground plants were stored in 2000-ml glass jars at 18±2° C. in the dark. Fifty-gram samples were placed into 1000-ml Erlenmeyer flasks with 500-ml of methanol (Sigma). […] The resulting residue was weighed and mixed with acetone to yield a 20% (w/w) plant suspension.
(§2) The EAG system and test protocols have been detailed by Stelinski et al. (2003 J. Chem. Ecol. 29: 403-422; Physiol. Entomol. 28: 97-107). Two milligrams of plant extracts (Table 1) or pheromone ((Z)11-14:Ac (lot #10010), Shin Etsu Tokyo, Japan) were diluted in acetone (20 μl total solution) and pipetted onto 1.4×0.5 cm strips of Whatman No. 1 filter paper. […] EAGs were measured as the maximum amplitude of depolarization elicited by 1-ml puffs of air through EAG-cartridges directed over live-insect preparations.
(§3) Male and female obliquebanded leafrollers and redbanded leafrollers were 2-4 d old when used for electroantennograms. […] For each sample tested, EAGs were recorded from ten moths of each sex. […]

[2] = test system: obliquebanded leafrollers, Choristoneura rosaceana; experiment: Eight-arm olfactometer attraction study; type: in vivo; conditions: 25 μl of 20% w/w extract in acetone, counts after 24 h
From the text: Male or female obliquebanded leafrollers used in this study were 1-3 d old. They were reared as described above. Discs, 55 mm in diameter, were cut from the sticky liners of pheromone traps (LPD Scenturian Guardpost, Suterra, Bend, Oreg.) intended for catching Lepidoptera. Each sticky disc was cleaned with acetone and placed into sterile 90-mm disposable Petri dish. Twenty millimeter diameter discs, cut from Whatman Number 1 filter paper, were placed centrally on top of the 55-mm sticky discs. Twenty-five microliters of each plant extract, diluted in acetone (20% w/w), was applied to the central filter paper disc. In the control treatment, 25-μl of acetone was applied to the disc. In the positive control, 25-μl of the pheromone component (Z)11-14:Ac was applied. In addition to positive control and negative or non-treatment control discs, a three-component obliquebanded leafroller pheromone in a rubber septum was also used as a standard. The septa were loaded with 0.485 mg of (Z)- and 0.015 mg (E)-11-tetradecenyl acetates and 0.026 mg of (Z)-11-tetradecenol (Hill and Roelofs 1979). […]
For the olfactometer test, the number of male insects attracted by each treatment was expressed as a percentage of the total number of insects tested in each replicate. […] The transformed data were analyzed using single-factor ANOVA (Minitab Release 14) (P=0.05) followed by Tukey's test (P=0.05). […]

[3] = test system: obliquebanded leafrollers, Choristoneura rosaceana; experiment: Electroantennogram (EAG) responses of obliquebanded leafrollers; type: in vivo; conditions: 2 mg on filter paper
Description: as §1, §2, §3

[4] = test system: 3rd instar Colorado potato beetle larvae; experiment: Contact toxicity bioassay (Potter spray tower), 3rd instar larvae; conditions: 2 ml of 40% (w/w) plant suspension
Description: Fifty grams of sample were placed into 1000 ml Erlemneyer flasks with 500 ml of methanol (Sigma). Flasks were covered with aluminum foil, placed on a horizontal shaker (HS 260 Basic, IKA Group) and shaken (120 oscillations/min for 24 h) in the dark. The suspension was filtered through two layers of cheese cloth, transferred into a 250 ml evaporating flask and excess methanol evaporated in a rotary evaporator (RV 05 Basic 1B, IKA Group) at 32±2° C. The resulting residue was weighted and eluted with sufficient distilled water containing 10% acetone (w/w) to yield a 40% (w/w) plant suspension.
Two ml of the distilled water containing 10% acetone was also applied to 20 larvae in each replicate as a negative control along with imidacloprid (CONFIDOR SL, Bayer) at manufacturer recommended rate as a positive control. After spraying, the larvae were transferred into 1000 ml glass jars and provided with fresh potato leaflets. The top of each jar was covered with cheese cloth and held at 28±2° C. and 16 h: 8 h light dark photo regime. Mortalities were recorded at 24 h intervals for 7 days. […] Each treatment was replicated three times within a trial and each trial was repeated three times.
Data were corrected for mortality in the controls using Abbotts formula and then normalized using arcsine transformation. Transformed data were analyzed using ANOVA (∝=0.05) and Tukeys mean separation (∝=0.05). […]

[5] = test system: Colorado potato beetle 1st-4th instar larvae and adults; experiment: Contact toxicity to various development stages; type: in vivo, Leptinotarsa decemlineata; conditions: 48 h incubation, 40% (w/w) suspension
Description: The plant samples were prepared according to the procedure described above. Nine extracts were used in this study. The plants (Table 8) were all collected during spring and summer of 2002. Samples were dried at room temperature and were ground for 5 min in a mill (M 20 IKA Universal Mill, IKA Group). […] For the dose-mortality bioassay, H. lupulus extract stock suspension was prepared as described above, containing 50% (w/w) plant extract/water with 10% acetone, and diluted in distilled water containing 10% acetone (w/w) to produce solutions containing 2.5, 5, 10, 20 and 40% (w/w).
Extract contact effects were determined on 1st-4th instar larvae as well as adult beetles. Twenty individuals for each development stage were transferred to Whatman filter paper in 90 mm disposable Petri dishes. The plant extract suspensions were shaken for 1 min and 2 ml of extract suspension was applied to each batch using a Potter spray tower set at 10 PSI with a 0.7 mm diameter fine droplet spray nozzle. After spraying, the insects were left to dry for 10 min at room temperature before transferring into a 1 l glass jar with fresh potato leaflets. The insects were incubated at 28±2° C. and 16:8 hr photophase. Controls were treated with 2 ml sterile distilled water containing 10% acetone. Imidacloprid (CONFIDOR SL, Bayer) was used as a standard control and three groups of 20 insects were treated with 2 ml of imidacloprid at the manufacturer's recommended rate (1.5 μl/ml) in distilled water. Mortalities were recorded at 24 h intervals for 7 d. Data were submitted to a randomized complete block statistical analysis. Three replicates of each developmental stage were sprayed with a plant extract suspension, three were used as control in each trial and three trials were performed each consisting of 3 treatment replicates.
Screening data were corrected for mortality in the controls using Abbott's formula (Abbott, J Econ Entomol 18:265-267 (1925)) and then normalised using an arcsine transformation. Transformed data were analyzed using ANOVA (P<0.05) and Tukeys mean separation (P≦0.05). All statistical analyses were carried out using MINITAB Release 14. Colorado potato beetle mortality obtained from dose-mortality bioassay utilizing H. lupulus was corrected for control mortality using Abbott's formula (supra). The corrected mortality data were analyzed using POLO-PC to estimate LC50, LC90 and the regression line slopes. Homogeneity of the regression lines between various developmental stages were tested using the maximum likelihood approximation test (P≦0.05).

[6] = test system: 3rd instar Colorado potato beetle larvae; experiment: Residual (stomach poison) toxicity bioassay on treated potato leaflets; type: in vivo, Leptinotarsa decemlineata; conditions: leaflets treated with 20% (w/w) extract
Description: Stomach poison effects of the thirty plant extracts were assed by morbidity assays using 3rd instar larvae fed on treated potato leaflets.
Leaflets were treated with 2 ml of each plant extract suspension in distilled water containing 10% acetone with the Potter Spray Tower set at 10 PSI with a 0.7 mm internal diameter nozzle. After treatment, the leaflets were dried at room temperature for about 5 min. The cut end of each leaflet petiole was covered with a 30×55 mm piece of sterile cotton wool, which was moistened with 2 ml of water containing 1% NPK (20-20-20) fertilizer. This treatment ensured that the excised leaflet remained green for at least 7 days. Treated leaflets were transferred into 1000 ml glass jars to which 20 3rd instar larvae were added before incubation as described above. Mortalities were assessed at 24 hr intervals for 7 days. Control leaflets were treated with 2 ml of distilled water containing 10% acetone and the standard imidacloprid control was used as described above. Each treatment was repeated three times per block and blocks were completed in a randomized complete block design.

Structure (SMILES): CC/C=C\CCCCCCCCCCOC(C)=O [Pheromone, (Z)11-14:Ac]
- EAG responses (mV ± SE) upon stimulation with 1 ml of air through stimulus cartridge ([1]; females): 0.43 ± 0.06 a mV
- EAG responses (mV ± SE) upon stimulation with 1 ml of air through stimulus cartridge ([1]; males): 5.42 ± 0.40 a mV
- Attraction (Mean ± SEM) % ([2]; females, listed as Pheromone on paper): 1.1% and 1.14 ± 1.12 b %
- Attraction (Mean ± SEM) % ([2]; males): 4.05 ± 1.66 bc %
- EAG responses (mV ± SE) upon stimulation with 1 ml of air through stimulus cartridge ([3]; females): 0.45 ± 0.06 ab mV
- EAG responses (mV ± SE) upon stimulation with 1 ml of air through stimulus cartridge ([3]; males): 4.87 ± 0.32 a mV

Structure (SMILES): O=[N+]([O-])NC1=NCCN1Cc1ccc(Cl)nc1 [Imidacloprid]
- Mortality % (mean ± SEM) caused by contact effect ([4]; 24 h incubation at 28 ± 2° C.): 100 ± 0.00 a A %
- Mortality % (mean ± SEM) caused by contact effect ([4]; 48 h incubation at 28 ± 2° C.): 100 ± 0.00 a A %
- % Mortality ± SEM, contact toxicity ([5]; 1st Instar Larvae): 100%
- % Mortality ± SEM, contact toxicity ([5]; 2nd Instar Larvae): 94.8% and 94.82 ± 3.05 a %
- % Mortality ± SEM, contact toxicity ([5]; 3rd Instar Larvae): 100%
- % Mortality ± SEM, contact toxicity ([5]; 4th Instar Larvae): 11.5% and 11.57 ± 0.11 b %
- % Mortality ± SEM, contact toxicity ([5]; Adult): 44.37 ± 3.32 a %
- Residual toxicities % (mean ± SEM) ([6]; 48 h incubation at 28 ± 2° C.): 71.9% and 71.89 ± 0.25 a A %
- Residual toxicities % (mean ± SEM) ([6]; 72 h incubation at 28 ± 2° C.): 83.64 ± 0.23 a A %
